Values joined by “and” are separate entries in the source; they are usually repeats but may differ in a detail not shown here. Equal entries are not always repeated. Marks after values point to notes of the source that are not given here.
How the values were obtained:
[1] = system: acidic vesicular organelles (AVO) in MCF-7 cells; test: Mean red/green fluorescence ratio in acridine orange stained cells by flow cytometry; type: cell-based, human
Experimental: bFGF was added to cultures of MCF-7 cells at 10 ng/ml for 48 hours. TNF was added at 2.3 nM for 48 hours. PMA was added for 1 hour at a concentration of 30 nM, followed by rinsing of the cells and incubation for an additional 48 hours.
Cell staining was performed according to standard techniques (Arvan et al., 1984, J. Bio. Chem. 259:13567-13572; Mains and May, 1988, J. Biol. Chem. 263:7887-7894; Traganos and Darzynkiewicz, Methods in Cell Biology 41:185-194, Academic Press). Acridine orange (Polysciences, Warrington, Pa.) was added to a final concentration of 1 μg/ml for 15 minutes. Bafilomycin A1 (Sigma Chemical Co., St. Louis, Mo.) was dissolved in DMSO and added to the cells 30 minutes prior to the addition of acridine orange. LysoSensor Blue DND-167 (Molecular Probes, Eugene, Oreg.) at a final concentration of 10 μM was added for 8 minutes. Pictures were obtained with a fluorescence microscope (Olympus BH-2 RFCA), equipped with a mercury-100 W lamp, 490 nm band pass blue excitation filters, 500 nm dichroic mirror and a 515 nm long pass barrier filter. Images of control and irradiated cells were recorded on Kodak Elite II 100 ASA film for color slides by 4 seconds exposure.
In acridine orange stained cells the cytoplasm and nucleolus fluoresce bright green and dim red, while acidic compartments fluoresce bright red (Mains and May, 1988, J. Biol. Chem. 263:7887-7894; Traganos and Darzynkiewicz, Methods in Cell Biology Vol. 41, pp. 185-194, Academic Press). The intensity of the red fluorescence is proportional to the degree of acidity and/or the volume of the cellular acidic compartment. Therefore, by comparing the mean red/green fluorescence ratio within different cell populations, a change in the degree of acidity and/or the fractional volume of the cellular acidic compartment could be measured. Cells were stained with acridine orange for […], removed from the plate with trypsin-EDTA and collected in phenol red-free growth medium. Green (510-530 nm) and red (>650 nm) Fluoresence emission from 10,000 cells illuminated with blue (488 nm) excitation light was measured with a FACSCalibur from Becton Dickinson (San Jose, Calif.) using CellQuest software. The red to green fluorescence ratio for individual cells was calculated using FlowJo software (TREE STAR, Inc., San Carlos, Calif.). To control for possible effect of trypsinization on the measured red to green fluorescence ratio, the ratios were compared by flow cytometry with those obtained with a Laser Scanning Microscope (LSM510 from Zeiss). Stained cells, grown on cover glass, were illuminated with a 488 nm argon laser beam. The red (>650 nm) to green (505-545 nm) fluorescence ratio of an entire image was obtained using software LSM 510 version 2.01 SP2. These measurements yielded similar results to those obtained with flow cytometry. All determinations of red to green fluorescence ratio reported in this section were obtained via flow cytometry.

AVO in MCF-7 cells = test: Vital staining with acridine orange, fluorescence microscopy; type: cell-based, human; details: pre-incubation with 300 μM chloroquine
Experimental: Acridine orange (Polysciences, Warrington, Pa.) was added to a final concentration of 1 μg/ml for 15 minutes. […] Pictures were obtained with a fluorescence microscope (Olympus BH-2 RFCA), equipped with a mercury-100 W lamp, 490 nm band pass blue excitation filters, 500 nm dichroic mirror and a 515 nm long pass barrier filter. Images of control and irradiated cells were recorded on Kodak Elite II 100 ASA film for color slides by 4 seconds exposure.

[2] = system: AVO-EM in irradiated MCF-7 cells; test: Electron microscopy of AVO-EM; type: cell-based, human; details: 3-methyladenine 5 mM; 10 Gy; without it 94%
Experimental: Cell processing for electron microscopy and staining with N-(3-(2,4-dinitrophenyl)-N-(3-aminopropyl))methylamine dihydrochloride (DAMP; Molecular Probes, Eugene, Oreg.) was performed as set forth in Anderson et al., 1984, Proc. Natl. Acad. Sci. U.S.A. 81:4838-4842 and Dunn et al., 1990, J. Cell Biol. 110:1935-1945. The fraction of the cytoplasmic volume occupied by AVO (fractional volume of AVO) was quantified from electron micrographs according to Dunn and Lenk et al., (Dunn et al., 1990, J. Cell Biol. 110:1935-1945; Lenk et al., 1992, J. Cell Biol. 118:301-308). Digital Images of the micrographs were obtained using an Epson ES-1200S flat bed scanner with Adobe Photoshop version 5. The fractional volume was calculated with Image Pro Plus Version 3 and expressed as a percentage of the total cytoplasmic volume.

[3] = system: LoVo (human colon adenocarcinoma); test: Clonogenic survival (surviving fraction) of LoVo cells after radiation or chemotherapeutic agent; type: cell-based
Experimental: (§1) MCF-7 (human breast adenocarcinoma), LoVo (human colon adenocarcinoma) and LNCaP (human prostate carcinoma) were obtained from the American Type Culture Collection. Cells were maintained as described in Paglin et al., 1997, Biochem. Biophs. Res. Comm. 237:678-684). Irradiation was carried out 48 hours post-plating (T0) at room temperature using a Cs-137 irradiator (Sheperd Mark-I, model 68, SN643) at a dose rate of 2.43-2.32 Gy/min. Bovine aortic endothelial cells were grown and treated with H2O2 as described in Haimovitz-Friedman et al., 1994, J. Exp. Med. 180:525-535 and Verhij et al., 1996, Nature 380:75-79. Phorbol 12-myristate 13-acetate (PMA; Alexis Biochemicals Corp., San Diego, Calif.) was dissolved in dimethyl sulfoxide (DMSO) and added to cells for the duration of one hour. The final DMSO concentration was 0.03%. The cells were then rinsed with warm growth medium before being returned to the incubator for an additional 48 hours.
(§2) Cells were plated in growth medium at a density of 30-90 cells per square centimeter and irradiated 22 hours later. Each experimental condition was done in quintet or triplicate. Cells were irradiated at room temperature in Cs-137 Irradiator (Sheperd Mark-I, Model 68, SN 643) at a rate of 2.43-2.32 Gy/min. […] For determination of their red to green ratio, colonies were processed as described above. For determination of surviving fractions cells were stained with crystal violet and colonies containing 50 cells or more were counted with a dissecting microscope. The surviving fraction was defined as the ratio between the plating efficiencies of irradiated and non-irradiated cells and was calculated at each dose level according to Hall and Phill (1994, […] for the Radiologist, 4th Edition, J. Lippincott Co., Philadelphia).

[4] = system: MCF-7 (human breast adenocarcinoma); test: Clonogenic survival (surviving fraction) of MCF-7 cells after radiation or chemotherapeutic agent; type: cell-based; details: for Surviving Fraction 100 nM Adriamycin / Surviving Fraction: Table 16
Experimental: as §1, §2

[5] = system: MCF-7 (human breast adenocarcinoma); test: as above; type: cell-based

C[C@]12CC[C@@H]3c4ccc(O)cc4CC[C@H]3[C@@H]1CC[C@@H]2O [Estradiol]
Fold increase of Red:Green ([1]; Estradiol 10^−9 M alone): 1 fold
inhibition of the effect of tamoxifen on appearance of acidic vesicular organelles ([1]; estradiol 10^−9 M with tamoxifen, Table 23): 50%

CCN(CC)CCCC(C)Nc1ccnc2cc(Cl)ccc12 (stereo not drawn) [chloroquine]
acridine orange accumulation in the AVO (AVO in MCF-7 cells): inhibited acridine orange accumulation

CC/C(=C(\c1ccccc1)c1ccc(OCCN(C)C)cc1)c1ccccc1 [Tamoxifen]
Fold increase of Red:Green ([1]; Tamoxifen 2 × 10^−6 M): 1.6 fold
Fold increase of Red:Green ([1]; Tamoxifen 2 × 10^−6 M + Estradiol 10^−9 M): 1.33 fold
Fold increase of Red:Green ([1]; Tamoxifen 10^−6 M): 1.5 fold
Fold increase of Red:Green ([1]; Tamoxifen 10^−6 M + Estradiol 10^−9 M): 1.25 fold

Cn1cnc(N)c2ncnc1-2 [3-methyladenine]
fraction of cells containing AVO-EM [2]: 22%
red to green ratio ([1]; 3-methyladenine 5 mM, 48 hours following radiation with 10 Gy, without it 1.77±0.01, n=3): 1.15±0.01

CCCCCCCCCCCCCC(=O)O[C@@H]1[C@@H](C)[C@@]2(O)[C@@H](C=C(CO)C[C@]3(O)C(=O)C(C)=C[C@@H]23)[C@@H]2C(C)(C)[C@]12OC(C)=O [PMA, Phorbol 12-myristate 13-acetate]
Fold Increase in Red: Green ([1]; MCF-7, PMA 30 nM for 1 hour, rinsed, additional 48 hours): 1.7±0.3 fold and 1.7 ± 0.3 (n = 3) fold

z-VAD-fmk
mean red to green fluorescence ratio ([1]; z-VAD-fmk 50 μM added 1 hour before irradiation, 10 Gy, 24 hours following irradiation): 2.5 ± 0.04
mean red to green fluorescence ratio ([1]; z-VAD-fmk 50 μM added 1 hour before, unirradiated, 24 hours): 1.4 ± 0.07

COc1cc([C@@H]2c3cc4c(cc3[C@@H](O[C@@H]3O[C@@H]5CO[C@@H](C)O[C@H]5[C@H](O)[C@H]3O)[C@H]3COC(=O)[C@H]23)OCO4)cc(OC)c1O [Etoposide]
cell survival (head of column empty) ([3]; Table 19, Etoposide 0.05 μg/ml alone): 0.78 ± 0.05
cell survival (head of column empty) ([4]; Table 18, MCF-7, Etoposide 0.05 μg/ml alone): (0.79; 0.77) 0.78*

bFGF: cytokine tested as inducer of acidic organelle formation
Fold Increase in Red: Green ([1]; MCF-7, bFGF 10 ng/ml for 48 hours): 2.23 ± 0.18 (n = 3) fold

COc1cccc2c1C(=O)c1c(O)c3c(c(O)c1C2=O)C[C@@](O)(C(=O)CO)C[C@@H]3O[C@H]1C[C@H](N)[C@H](O)[C@H](C)O1 [Adriamycin]
Surviving Fraction Without Bafilomycin ([3]; Adriamycin 50 nM alone): 0.84 ± 0.01
Surviving Fraction Without Bafilomycin ([3]; Adriamycin 100 nM alone): 0.77 ± 0.01
Surviving Fraction Without Bafilomycin ([3]; Adriamycin 150 nM alone): 0.47 ± 0.02
survival, Adriamycin 100 nM ([3]; Table 17, Adriamycin 100 nM alone, 48 hours): 0.94 ± 0.1
Surviving Fraction 100 nM Adriamycin ([4]; MCF-7, 100 nM Adriamycin alone (Salicilyhalamide 0 nM)): 0.88 ± 0.08
survival, column Adriamycin ([5]; Table 15, 100 nM adriamycin alone (Bafilomycin 0 nM)): 0.88 ± 0.08

CO[C@H]1C[C@@H]2CC[C@@H](C)[C@@](O)(O2)C(=O)C(=O)N2CCCC[C@H]2C(=O)O[C@H]([C@H](C)C[C@@H]2CC[C@@H](O)[C@H](OC)C2)CC(=O)[C@H](C)/C=C(\C)[C@@H](O)[C@@H](OC)C(=O)[C@H](C)C[C@H](C)/C=C/C=C/C=C/1C [Rapamycin, rapamycin]
Fold Increase in Red:Green 48 hrs ([1]; Table 21, MCF-7, 20 nM rapamycin): 1.96 fold
Fold Increase in Red:Green 48 hrs ([1]; Table 21, MCF-7, 50 nM rapamycin): 2.31 fold
Fold Increase in Red:Green 24 hrs ([1]; Table 22, Rapamycin 10 nM): 1.7 fold
Fold Increase in Red:Green 48 hrs ([1]; Table 22, Rapamycin 10 nM): 1.6 fold
Fold Increase in Red:Green 24 hrs ([1]; Table 22, Rapamycin 20 nM): 1.7 fold
Fold Increase in Red:Green 48 hrs ([1]; Table 22, Rapamycin 20 nM): 1.4 fold

CC/C=C\C=C/C(=O)N/C=C/C[C@H]1C[C@@H](O)[C@@H](C)C/C=C/Cc2cccc(O)c2C(=O)O1 [Salicylihalamide A]
decrease of survival of irradiated cells ([4]; 25 nM salicylihalamide A, 3 Gy): 30%
Surviving Fraction 0 Gy ([4]; Salicylihalamide A 12.5 nM): 1.14 ± 0.07
Surviving Fraction 3 Gy ([4]; Salicylihalamide A 12.5 nM, 3 Gy): 0.38 ± 0.03
Surviving Fraction 0 Gy ([4]; Salicylihalamide A 25 nM): 0.92 ± 0.08
Surviving Fraction 0 Gy ([4]; Salicylihalamide A 25 nM, listed as salicylihalamide A): did not significantly affect
Surviving Fraction 3 Gy ([4]; Salicylihalamide A 25 nM, 3 Gy): 0.32 ± 0.03
Surviving Fraction 0 Gy ([4]; Salicylihalamide A 50 nM): 0.72 ± 0.09
Surviving Fraction 3 Gy ([4]; Salicylihalamide A 50 nM, 3 Gy): 0.22 ± 0.04
Surviving Fraction 0 Gy ([4]; Salicylihalamide A 100 nM): 0.53 ± 0.03
Surviving Fraction 3 Gy ([4]; Salicylihalamide A 100 nM, 3 Gy): 0.11 ± 0.02
Surviving Fraction 100 nM Adriamycin ([4]; MCF-7, Salicilyhalamide 25 nM + 100 nM Adriamycin): 0.79 ± 0.05
Surviving Fraction ([4]; MCF-7, Salicilyhalamide 25 nM alone): 1.03 ± 0.03
Surviving Fraction 100 nM Adriamycin ([4]; MCF-7, Salicilyhalamide 50 nM + 100 nM Adriamycin): 0.66 ± 0.04
Surviving Fraction ([4]; MCF-7, Salicilyhalamide 50 nM alone, listed as Salicilyhalamide): 0.95 ± 0.01
Surviving Fraction ([4]; MCF-7, Salicilyhalamide 50 nM alone, listed as salicylihalamide A): minimal effect
Surviving Fraction 100 nM Adriamycin ([4]; MCF-7, Salicilyhalamide 100 nM + 100 nM Adriamycin): 0.57 ± 0.01
Surviving Fraction ([4]; MCF-7, Salicilyhalamide 100 nM alone): 0.78 ± 0.04
decrease of survival ([5]; 50 nM salicylihalamide A in combination with 100 nM Adriamycin): 25%

From US6982252B2, “Inhibition of vacuolar proton ATPase activity and/or the modulation of acidic organelle function sensitizes cells to radiation, chemotherapy and biological agents” (Memorial Sloan-Kettering Cancer Center, priority 2000, dated 2006)
